Assay results: patent publication US5861274A, “Nucleic acids encoding peroxisome proliferator-activated receptor” (The Salk Institute for Biological Studies, priority 1995, dated 1999)
Entries after “also recorded” stand apart in the source; their conditions may differ.

Assays:
PPARalpha (Mus musculus) = test: cell_activity; details: activation by 5 uM Wy 14,643 in CV-1 cells
PPARγ = molecular target: T1, PPARγ (Mus musculus, UniProt P37238); test: Cotransfection assay, PPRE3-TK-LUC reporter with CMX-PPARγ; format: cell-based; details: CV-1 cells; for activation of PPARγ (reporter expression), in words: 5 μM Wy 14,643, 30 μM linoleic acid or 30 μM LY-171883; for rank order of efficacy of activation, PPARγ: FIG. 4, 5 μM Wy 14,643, 30 μM linoleic acid, 30 μM LY-171883
T1 sequence (P37238 31-475 N383S): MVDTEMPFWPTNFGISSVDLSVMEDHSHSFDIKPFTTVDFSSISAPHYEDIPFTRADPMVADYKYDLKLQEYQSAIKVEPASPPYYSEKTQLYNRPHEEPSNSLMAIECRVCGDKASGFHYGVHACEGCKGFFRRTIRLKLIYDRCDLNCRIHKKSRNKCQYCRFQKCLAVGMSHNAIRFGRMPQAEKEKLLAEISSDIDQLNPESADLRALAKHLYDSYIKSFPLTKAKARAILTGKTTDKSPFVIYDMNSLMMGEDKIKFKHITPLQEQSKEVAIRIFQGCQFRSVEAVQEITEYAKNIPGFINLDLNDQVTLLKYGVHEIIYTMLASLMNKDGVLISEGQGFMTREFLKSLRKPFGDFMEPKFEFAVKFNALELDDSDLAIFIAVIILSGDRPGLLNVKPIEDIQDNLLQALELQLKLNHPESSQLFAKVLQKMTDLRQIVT
Excerpt: Luciferase activities are presented as the fold activation achieved in compound-treated versus mock-treated cells. Similar results were obtained in triplicate in three independent experiments.
(§1) The mammalian expression vectors pCMX-PPARα, pCMX-PPARγ and pCMX-PPARδ were constructed by inserting the cDNA inserts of PPARα, PPARγ, and PPARδ into pCMX as previously described by Umesono et al., in Cell 65:1255-1266 (1991)). Construction of the reporter PPRE3 -TK-LUC has also been previously described by Kliewer et al., (1992) supra. Cotransfection assays in CV-1 cells were done in 48 well plates using N-[1-(2,3-dioleoyloxy)-propyl[N,N,N-trimethylammonium methyl sulfate (DOTAP) according to the manufacturer's instructions (Boehringer Mannheim). Transfections contained […] of receptor expression plasmid vector, 20 ng of the reporter PPRE3 -TK-LUC, 60 ng of pCMX-βGAL (β-galactosidase) as an internal control, and 210 ng of carrier plasmid pGEM. Cells were incubated in the presence of DOTAP for 8 hours, washed, and incubated in the presence of peroxisome proliferators or fatty acids for 36 hours. Cell extracts were prepared and assayed for luciferase and β-galactosidase activity as previously described (Umesono, supra). All experimental points were done in triplicate.

PPARα = molecular target: T2, PPARα (Mus musculus, UniProt P23204); test: Cotransfection assay, PPRE3-TK-LUC reporter with CMX-PPARα; format: cell-based; details: CV-1 cells; for rank order of efficacy of activation, PPARα: FIG. 4, 5 μM Wy 14,643, 30 μM linoleic acid, 30 μM LY-171883
T2 sequence (P23204 1-468): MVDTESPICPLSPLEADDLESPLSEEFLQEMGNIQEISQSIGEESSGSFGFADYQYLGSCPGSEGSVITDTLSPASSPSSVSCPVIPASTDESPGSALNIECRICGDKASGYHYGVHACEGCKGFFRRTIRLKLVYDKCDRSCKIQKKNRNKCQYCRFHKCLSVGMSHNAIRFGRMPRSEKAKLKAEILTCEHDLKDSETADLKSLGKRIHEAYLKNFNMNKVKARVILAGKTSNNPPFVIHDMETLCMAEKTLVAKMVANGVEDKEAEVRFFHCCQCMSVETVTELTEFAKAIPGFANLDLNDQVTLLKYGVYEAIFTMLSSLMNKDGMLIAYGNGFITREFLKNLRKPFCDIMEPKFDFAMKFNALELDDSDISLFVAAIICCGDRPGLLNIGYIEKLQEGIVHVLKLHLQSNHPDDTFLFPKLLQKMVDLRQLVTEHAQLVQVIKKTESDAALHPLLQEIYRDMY
Excerpt: as §1

PPARδ = molecular target: T3, PPARδ (Mus musculus, UniProt P35396); test: Cotransfection assay, PPRE3-TK-LUC reporter with CMX-PPARδ; format: cell-based; details: CV-1 cells; for activation of PPARδ (reporter expression), in words: 5 μM Wy 14,643, 30 μM linoleic acid or 30 μM LY-171883; for rank order of efficacy of activation, PPARδ: FIG. 4, 5 μM Wy 14,643, 30 μM linoleic acid, 30 μM LY-171883
T3 sequence (P35396 1-440): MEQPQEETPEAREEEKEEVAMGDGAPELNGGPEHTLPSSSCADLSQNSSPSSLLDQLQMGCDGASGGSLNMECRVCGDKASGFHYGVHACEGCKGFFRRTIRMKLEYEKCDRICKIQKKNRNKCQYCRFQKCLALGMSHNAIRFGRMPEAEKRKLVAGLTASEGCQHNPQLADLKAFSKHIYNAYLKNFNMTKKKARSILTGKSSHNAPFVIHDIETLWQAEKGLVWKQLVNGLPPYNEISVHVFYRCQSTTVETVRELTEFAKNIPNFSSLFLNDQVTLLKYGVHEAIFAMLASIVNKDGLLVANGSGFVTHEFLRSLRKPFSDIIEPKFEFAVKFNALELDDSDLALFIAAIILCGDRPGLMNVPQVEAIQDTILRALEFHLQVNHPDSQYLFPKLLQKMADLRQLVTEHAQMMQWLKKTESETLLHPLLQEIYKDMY
Excerpt: as §1

PPRE3-TK-LUC reporter
activity (PPARalpha (Mus musculus)): > 100 fold

CCCCC/C=C\C/C=C\CCCCCCCC(=O)O [linoleic acid]
activation of PPARγ (reporter expression), in words (PPARγ): no activation
rank order of efficacy of activation, PPARγ (PPARγ): LY 171883>linoleic acid>Wy 14,643
rank order of efficacy of activation, PPARα (PPARα): Wy 14,643>LY-171883>linoleic acid
activation of PPARδ (reporter expression), in words (PPARδ): strong activators; also recorded: most efficiently activated
rank order of efficacy of activation, PPARδ (PPARδ): linoleic acid>LY-171883 and Wy 14,643

Cc1cccc(Nc2cc(Cl)nc(SCC(=O)O)n2)c1C [Wy 14,643]
activation of PPARγ (reporter expression), in words (PPARγ): no activation; also recorded: fail 30 to respond; also recorded: fails to activate
rank order of efficacy of activation, PPARγ (PPARγ): LY 171883>linoleic acid>Wy 14,643
activation of PPARα (reporter expression), in words (PPARα; 5 μM Wy 14,643, 30 μM linoleic acid or 30 μM LY-171883): most efficiently activated
rank order of efficacy of activation, PPARα (PPARα): Wy 14,643>LY-171883>linoleic acid

CCCc1c(OCCCCc2nnn[nH]2)ccc(C(C)=O)c1O [LY-171883]
activation of PPARγ (reporter expression), in words (PPARγ): significant activation; also recorded: most efficiently activated
rank order of efficacy of activation, PPARγ (PPARγ): LY 171883>linoleic acid>Wy 14,643
rank order of efficacy of activation, PPARα (PPARα): Wy 14,643>LY-171883>linoleic acid
activation of PPARδ (reporter expression), in words (PPARδ): strong activators
rank order of efficacy of activation, PPARδ (PPARδ): linoleic acid>LY-171883 and Wy 14,643
